# What was measured:
# Rattus norvegicus [1] = assay: Induction of diuresis in Rattus norvegicus albino (rat) assessed as urinary Na+ excretion at 1000 mg/kg, po measured at 0-5 hr after drug administration by standard Lipschitz method (reference value: 0.90 +/-0.003 mEq/L); type: functional, Urine
# Rattus norvegicus [2] = assay: Induction of diuresis in Rattus norvegicus albino (rat) assessed as total urinary output at 1000 mg/kg, po measured at 5-18 hr after drug administration by standard Lipschitz method (reference value: 1.26 +/-0.049 ml); type: functional, Urine
# Rattus norvegicus [3] = assay: Induction of diuresis in Rattus norvegicus albino (rat) assessed as urinary Cl- excretion at 1000 mg/kg, po measured at 5-18 hr after drug administration by standard Lipschitz method (reference value: 0.38 +/-0.011 mEq/L); type: functional, Urine
# Rattus norvegicus [4] = assay: Induction of diuresis action in Rattus norvegicus albino (rat) assessed as urinary excretion at 1000 mg/kg, po measured at 5-18 hr after drug administration by standard Lipschitz method against untreated control (reference value: 1 no unit); type: functional, Urine
# Rattus norvegicus [5] = assay: Induction of diuresis in Rattus norvegicus albino (rat) assessed as urinary excretion at 1000 mg/kg, po measured at 5-18 hr after drug administration by standard Lipschitz method (reference value: 50.4%); type: functional, Urine
# Rattus norvegicus [6] = assay: Induction of diuresis in Rattus norvegicus albino (rat) assessed as urinary K+ excretion at 1000 mg/kg, po measured at 0-5 hr after drug administration by standard Lipschitz method (reference value: 0.46 +/-0.006 mEq/L); type: functional, Urine
# Rattus norvegicus [7] = assay: Induction of diuresis action in Rattus norvegicus albino (rat) assessed as urinary excretion at 1000 mg/kg, po measured at 0-5 hr after drug administration by standard Lipschitz method against untreated control (reference value: 1 no unit); type: functional, Urine
# Rattus norvegicus [8] = assay: Induction of diuresis in Rattus norvegicus albino (rat) assessed as urinary excretion at 1000 mg/kg, po measured at 0-5 hr after drug administration by standard Lipschitz method (reference value: 98.40%); type: functional, Urine
# Rattus norvegicus [9] = assay: Induction of diuresis activity in Rattus norvegicus albino (rat) assessed as urinary excretion at 1000 mg/kg, po measured at 5-18 hr after drug administration by standard Lipschitz method against frusemide-treated control (reference value: 0.2 no unit); type: functional, Urine
# Rattus norvegicus [10] = assay: Induction of diuresis in Rattus norvegicus albino (rat) assessed as total urinary output at 1000 mg/kg, po measured at 0-5 hr after drug administration by standard Lipschitz method (reference value: 2.46 +/-0.125 ml); type: functional, Urine
# Rattus norvegicus [11] = assay: Induction of diuresis in Rattus norvegicus albino (rat) assessed as urinary Cl- excretion at 1000 mg/kg, po measured at 0-5 hr after drug administration by standard Lipschitz method (reference value: 0.46 +/-0.005 mEq/L); type: functional, Urine
# Rattus norvegicus [12] = assay: Induction of diuresis in Rattus norvegicus albino (rat) assessed as urinary K+ excretion at 1000 mg/kg, po measured at 5-18 hr after drug administration by standard Lipschitz method (reference value: 0.22 +/-0.004 mEq/L); type: functional, Urine
# Rattus norvegicus [13] = assay: Induction of diuresis in Rattus norvegicus albino (rat) assessed as normal saline intake at 1000 mg/kg, po measured at 0-5 hr after drug administration by standard Lipschitz method (reference value: 2.50 +/-0.036 ml); type: functional
# Rattus norvegicus [14] = assay: Induction of diuresis activity in Rattus norvegicus albino (rat) assessed as urinary excretion at 1000 mg/kg, po measured at 0-5 hr after drug administration by standard Lipschitz method against frusemide-treated control (reference value: 0.5 no unit); type: functional, Urine
# Rattus norvegicus [15] = assay: Induction of diuresis in Rattus norvegicus albino (rat) assessed as urinary Na+ excretion at 1000 mg/kg, po measured at 5-18 hr after drug administration by standard Lipschitz method (reference value: 0.65 +/-0.006 mEq/L); type: functional, Urine
# Rattus norvegicus [16] = assay: Induction of diuresis in Rattus norvegicus albino (rat) assessed as normal saline intake at 1000 mg/kg, po measured at 5-18 hr after drug administration by standard Lipschitz method (reference value: 2.50 +/-0.036 ml); type: functional
smiles,measurement,setting,value
NC(N)=O [UREA],Activity,Rattus norvegicus [1],1.91 mEq/L
same,Activity,Rattus norvegicus [2],6.3 mL
same,Activity,Rattus norvegicus [3],1.94 mEq/L
same,Ratio,Rattus norvegicus [4],4.6
same,Activity,Rattus norvegicus [5],230.76%
same,Activity,Rattus norvegicus [6],0.94 mEq/L
same,Ratio,Rattus norvegicus [7],1.9
same,Activity,Rattus norvegicus [8],187.91%
same,Ratio,Rattus norvegicus [9],0.93
same,Activity,Rattus norvegicus [10],5.13 mL
same,Activity,Rattus norvegicus [11],0.95 mEq/L
same,Activity,Rattus norvegicus [12],2.82 mEq/L
same,Activity,Rattus norvegicus [13],2.73 mL
same,Ratio,Rattus norvegicus [14],0.96
same,Activity,Rattus norvegicus [15],2.82 mEq/L
same,Activity,Rattus norvegicus [16],2.73 mL
